Source: patent US9169241B2, “Quinolinyloxyphenylsulfonamides” (Max-Planck-Gesellschaft Zur Forderung der Wissenschaften …, priority 2009, dated 2015)

How the values were obtained:
Format in all cases: cell-based
MiaPaca-2 = assay: Cell vitality assay (ATP assay, CellTiter-Glo); conditions: Homo sapiens, MIA PaCa-2, Table IIb
In short: (§1)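 1000 cells/well incubated 72 h with compound at 12.5 down to 0.195 μM (twofold steps) or DMSO control. Viability measured as cellular ATP by CellTiter-Glo luminescence; IC50 taken as the concentration giving 50% of the DMSO-control ATP level.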

H460 = assay: Cell vitality assay (ATP assay, CellTiter-Glo); conditions: Homo sapiens, NCI-H460, Table IIc
In short: as §1

786-0 = assay: Cell vitality assay (ATP assay, CellTiter-Glo); conditions: Homo sapiens, Table IIb
In short: as §1

Panc-1 = assay: Cell vitality assay (ATP assay, CellTiter-Glo); conditions: Homo sapiens, Table IIb
In short: as §1

DU145 = assay: Cell vitality assay (ATP assay, CellTiter-Glo); conditions: Homo sapiens, DU-145, Table IIb
In short: as §1

PC3 [1] = assay: Cell vitality assay (ATP assay, CellTiter-Glo); conditions: Homo sapiens, PC-3, Table IIb
In short: as §1

U373 [2] = assay: Cell vitality assay (ATP assay, CellTiter-Glo); conditions: Homo sapiens, U373 MG, Table IIc
In short: as §1

HT29 = assay: Cell vitality assay (ATP assay, CellTiter-Glo); conditions: Homo sapiens, HT-29, Table IIc
In short: as §1

Aspc-1 = assay: Cell vitality assay (ATP assay, CellTiter-Glo); conditions: Homo sapiens, ASPC1, Table IIb
In short: as §1

MDA-MB435s = assay: Cell vitality assay (ATP assay, CellTiter-Glo); conditions: Homo sapiens, MDA-MB-435S, Table IIc
In short: as §1

A549 = assay: Cell vitality assay (ATP assay, CellTiter-Glo); conditions: Homo sapiens, Table IIc
In short: as §1

SK-MEL28 = assay: Matrigel outgrowth assay/branching assay; conditions: IC100, SK-MEL28; Table Vb
In short: (§2)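 Cells (5000/well) were seeded onto polymerized 3 mg/ml Matrigel with compound at 3.125, 1.56 or 0.78 μM, or DMSO. Imaging by inverted microscopy at 48, 72 and 96 h scored invasive branching. Only concentrations giving total branching inhibition counted as positive.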

U87MG = assay: Matrigel outgrowth assay/branching assay; conditions: IC100, U87MG; Table Vb
In short: as §2

NCI-H1299 = assay: Matrigel outgrowth assay/branching assay; conditions: IC100, NCI-H1299; Table Vb
In short: as §2

PC3 [3] = assay: Matrigel outgrowth assay/branching assay; conditions: IC100, PC3; Table Vb
In short: as §2

U373 [4] = assay: Matrigel outgrowth assay/branching assay; conditions: IC100, U373; Table Vb
In short: as §2

U138 = assay: Matrigel outgrowth assay/branching assay; conditions: IC100, U138; Table Vb
In short: as §2

MCF10A = assay: Cell vitality assay (ATP assay, CellTiter-Glo); conditions: Homo sapiens, MCF-10A, Table IIb
In short: as §1

Row | SMILES | IC50 (MiaPaca-2) [µM] | IC50 (H460) [µM] | IC50 (786-0) [µM] | IC50 (Panc-1) [µM] | IC50 (DU145) [µM] | IC50 (PC3 [1]) [µM] | IC50 (HT29) [µM] | IC50 (Aspc-1) [µM] | IC50 (MDA-MB435s) [µM] | IC50 (A549) [µM] | IC50 (U373 [2]) [µM] | Total branching inhibition in Matrigel SK-MEL28 (SK-MEL28) | Total branching inhibition in Matrigel U87MG (U87MG) | Total branching inhibition in Matrigel NCI-H1299 (NCI-H1299) | Total branching inhibition in Matrigel PC3 (PC3 [3]) | Total branching inhibition in Matrigel U373 (U373 [4]) | Total branching inhibition in Matrigel U138 (U138) | IC50 (MCF10A) [µM]
1 | COc1cc2c(Oc3ccc(NS(=O)(=O)c4cccc(Oc5ccccc5)c4)cc3F)ccnc2cc1OCCCN1CCN(C)CC1 [Example 14, N-(3-Fluoro-4-{6-methoxy-7-[3-(4-methyl-piperazin-1-yl)-propoxy]-quinolin-4-yloxy}-phenyl)-3-phenoxy-benzenesulfonamide] |  |  |  |  |  |  |  |  |  |  |  |  |  |  |  |  | ++ (IC100≦12.5 μM) | 
2 | COc1cc2c(Oc3ccc(NS(=O)(=O)c4cc(F)ccc4F)cc3F)ccnc2cc1OCCCN1CCCCC1 [Example 1, 2,5-Difluoro-N-{3-fluoro-4-[6-methoxy-7-(3-piperidin-1-yl-propoxy)-quinolin-4-yloxy]-phenyl}-benzenesulfonamide] | ≤ 12.5 | ≤ 12.5 | 12.5 to 50 | 12.5 to 50 | ≤ 12.5 | ≤ 12.5 | ≤ 12.5 | ≤ 12.5 | ≤ 12.5 | ≤ 12.5 | ≤ 12.5 | ++ (IC100≦12.5 μM) | + (IC100>12.5 μM) | ++ (IC100≦12.5 μM) | ++ (IC100≦12.5 μM) | ++ (IC100≦12.5 μM) | ++ (IC100≦12.5 μM) | 

Continued, in another order:

Row | IC50 (MiaPaca-2) [µM] | IC50 (H460) [µM] | IC50 (786-0) [µM] | IC50 (Panc-1) [µM] | IC50 (DU145) [µM] | IC50 (PC3 [1]) [µM] | IC50 (HT29) [µM] | IC50 (Aspc-1) [µM] | IC50 (MDA-MB435s) [µM] | IC50 (A549) [µM] | SMILES | IC50 (U373 [2]) [µM] | Total branching inhibition in Matrigel SK-MEL28 (SK-MEL28) | Total branching inhibition in Matrigel U87MG (U87MG) | Total branching inhibition in Matrigel NCI-H1299 (NCI-H1299) | Total branching inhibition in Matrigel PC3 (PC3 [3]) | Total branching inhibition in Matrigel U373 (U373 [4]) | Total branching inhibition in Matrigel U138 (U138) | IC50 (MCF10A) [µM]
3 | ≤ 12.5 | ≤ 12.5 | ≤ 12.5 | ≤ 12.5 | ≤ 12.5 | ≤ 12.5 | ≤ 12.5 | ≤ 12.5 | ≤ 12.5 | ≤ 12.5 | COC(=O)c1sccc1S(=O)(=O)Nc1ccc(Oc2ccnc3cc(OCCCN4CCCC(C)C4)c(OC)cc23)c(F)c1 (stereo not shown) [Example 66, 3-(3-Fluoro-4-{6-methoxy-7-[3-(3-methyl-piperidin-1-yl)-propoxy]-quinolin-4-yloxy}-phenylsulfamoyl)-thiophene-2-carboxylic acid methyl ester] | ≤ 12.5 | ++ (IC100≦12.5 μM) | ++ (IC100≦12.5 μM) | ++ (IC100≦12.5 μM) | ++ (IC100≦12.5 μM) | ++ (IC100≦12.5 μM) | ++ (IC100≦12.5 μM) | 
4 | ≤ 12.5 | ≤ 12.5 | ≤ 12.5 | 12.5 to 50 | ≤ 12.5 | 12.5 to 50 | ≤ 12.5 | ≤ 12.5 | ≤ 12.5 | ≤ 12.5 | COc1cc2c(Oc3ccc(NS(=O)(=O)c4ccccc4C(F)(F)F)cc3F)ccnc2cc1OCCCN1CCN(C)CC1 [Example 24, N-(3-Fluoro-4-{6-methoxy-7-[3-(4-methyl-piperazin-1-yl)-propoxy]-quinolin-4-yloxy}-phenyl)-2-trifluoromethyl-benzenesulfonamide] | ≤ 12.5 | ++ (IC100≦12.5 μM) | + (IC100>12.5 μM) | ++ (IC100≦12.5 μM) | ++ (IC100≦12.5 μM) | ++ (IC100≦12.5 μM) | ++ (IC100≦12.5 μM) | ≤ 12.5
5 | ≤ 12.5 | ≤ 12.5 | ≤ 12.5 | 12.5 to 50 | ≤ 12.5 | ≤ 12.5 | ≤ 12.5 | ≤ 12.5 | ≤ 12.5 | ≤ 12.5 | COc1cc2c(Oc3ccc(NS(=O)(=O)c4cc(F)ccc4F)cc3F)ccnc2cc1OCCCN1CCN(C)CC1 [Example 12, 2,5-Difluoro-N-(3-fluoro-4-{6-methoxy-7-[3-(4-methyl-piperazin-1-yl)-propoxy]-quinolin-4-yloxy}-phenyl)-benzenesulfonamide] | ≤ 12.5 | ++ (IC100≦12.5 μM) | + (IC100>12.5 μM) | ++ (IC100≦12.5 μM) | ++ (IC100≦12.5 μM) | ++ (IC100≦12.5 μM) | ++ (IC100≦12.5 μM) | 
